Like-named read-outs stand apart in the source and are kept apart here.
How the values were obtained:
MARV VP40 (mVP40) VLPs = test: organism not typed; assay type: cell-based, Marburg virus (MARV)
VSV-WT = assay type: cell-based, vesicular stomatitis virus (Indiana strain)
EBOV VP40 (eVP40) VLPs = assay type: cell-based, Ebola virus (EBOV)
mVP40-Nedd4 interaction = mVP40-Nedd4 interaction (Homo sapiens, UniProt P46934); assay type: cell-based
E-BiMC (Ebola VP40) = assay type: cell-based
LFV Z VLPs = assay type: cell-based, Lassa fever virus (LFV)
VSV-M40 = assay type: cell-based, vesicular stomatitis virus

Sequence of mVP40-Nedd4 interaction (P46934 whole entry): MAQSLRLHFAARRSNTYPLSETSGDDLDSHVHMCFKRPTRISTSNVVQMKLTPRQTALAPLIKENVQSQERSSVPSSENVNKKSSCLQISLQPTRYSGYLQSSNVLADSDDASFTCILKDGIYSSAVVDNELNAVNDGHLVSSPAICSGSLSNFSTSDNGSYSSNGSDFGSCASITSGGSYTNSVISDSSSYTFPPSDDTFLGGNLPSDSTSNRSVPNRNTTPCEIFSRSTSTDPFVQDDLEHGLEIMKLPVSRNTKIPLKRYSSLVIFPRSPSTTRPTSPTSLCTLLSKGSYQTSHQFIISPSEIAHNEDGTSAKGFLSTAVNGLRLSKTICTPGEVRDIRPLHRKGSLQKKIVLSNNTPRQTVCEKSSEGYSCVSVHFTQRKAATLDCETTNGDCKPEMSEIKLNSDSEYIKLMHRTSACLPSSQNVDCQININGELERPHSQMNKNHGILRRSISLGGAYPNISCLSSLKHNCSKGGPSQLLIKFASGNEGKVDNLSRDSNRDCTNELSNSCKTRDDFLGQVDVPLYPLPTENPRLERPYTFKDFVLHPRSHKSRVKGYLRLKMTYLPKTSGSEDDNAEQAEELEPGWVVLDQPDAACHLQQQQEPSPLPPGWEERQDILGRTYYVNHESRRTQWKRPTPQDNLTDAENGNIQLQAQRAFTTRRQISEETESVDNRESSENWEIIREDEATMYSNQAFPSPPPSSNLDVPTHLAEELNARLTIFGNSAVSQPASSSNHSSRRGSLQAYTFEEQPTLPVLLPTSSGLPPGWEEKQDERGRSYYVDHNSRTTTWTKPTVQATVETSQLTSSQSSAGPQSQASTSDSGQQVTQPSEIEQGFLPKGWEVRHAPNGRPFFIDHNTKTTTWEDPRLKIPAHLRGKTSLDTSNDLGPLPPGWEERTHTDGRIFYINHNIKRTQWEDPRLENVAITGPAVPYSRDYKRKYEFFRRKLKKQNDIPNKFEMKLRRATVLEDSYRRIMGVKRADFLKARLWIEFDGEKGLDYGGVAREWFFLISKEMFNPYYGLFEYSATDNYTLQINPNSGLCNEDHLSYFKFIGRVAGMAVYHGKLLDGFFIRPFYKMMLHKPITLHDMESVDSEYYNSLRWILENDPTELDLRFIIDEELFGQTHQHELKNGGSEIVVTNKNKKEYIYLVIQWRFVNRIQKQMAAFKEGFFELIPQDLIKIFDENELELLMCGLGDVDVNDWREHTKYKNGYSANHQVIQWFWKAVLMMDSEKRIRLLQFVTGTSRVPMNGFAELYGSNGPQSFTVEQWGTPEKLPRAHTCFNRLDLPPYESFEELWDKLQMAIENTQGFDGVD

O=C(CN1CCCC(c2nc3ccccc3s2)C1)NC(=O)NCC(F)(F)F (stereo not shown) [Compound 1, 2-(3-(benzo[d]thiazol-2-yl)piperidin-1-yl)-N-((2,2,2-trifluoroethyl)carbamoyl) acetamide]
inhibition of egress of mVP40 VLPs (MARV VP40 (mVP40) VLPs; 20 μM): ~5 fold
reduction of budding of VSV-WT (VSV-WT; 10 μM): approximately 5 fold

Cc1n[nH]c(C)c1NC(=O)CN1CCCC(c2nc3ccccc3s2)C1 (stereo not shown) [Compound 2, 2-(3-(benzo[d]thiazol-2-yl)piperidin-1-yl)-N-(3,5-dimethyl-1H-pyrazol-4-yl) acetamide]
inhibition of egress of Marburg (M) VP40 VLPs (MARV VP40 (mVP40) VLPs; 20 μM): nearly full inhibition
inhibition of egress of mVP40 VLPs (MARV VP40 (mVP40) VLPs; 20 μM): 33 fold
inhibition of egress of mVP40 VLPs (MARV VP40 (mVP40) VLPs; 40 μM): 100 fold
inhibition of egress of eVP40 VLPs (EBOV VP40 (eVP40) VLPs; 20 μM): 2.5 fold
inhibition of egress of Ebola (E) VP40 VLPs (EBOV VP40 (eVP40) VLPs; 40 μM): nearly full inhibition
inhibition of egress of eVP40 VLPs (EBOV VP40 (eVP40) VLPs; 40 μM): 40 fold
inhibition of budding of live wild type VSV (VSV-WT): significantly inhibited
target engagement in M-BiMC assay (mVP40-Nedd4 interaction): showed target engagement
target engagement in E-BiMC assay (E-BiMC (Ebola VP40)): showed target engagement

O=C(CN1CCCC(c2nc3ccccc3s2)C1)NCCOc1ccccc1 (stereo not shown) [Compound 2e, 2-(3-(benzo[d]thiazol-2-yl)piperidin-1-yl)-N-(2-phenoxyethyl)acetamide]
activity in the M VP40 budding assay (MARV VP40 (mVP40) VLPs; 10 μM): active

Cc1n[nH]c(C)c1NC(=O)CN1CCN(c2nc3ccccc3s2)CC1 [Compound 2g, 2-(4-(benzo[d]thiazol-2-yl)piperazin-1-yl)-N-(3,5-dimethyl-1H-pyrazol-4-yl)acetamide]
activity in SAR studies, MVP40 VLP budding (words, FIG. 10) (MARV VP40 (mVP40) VLPs): inactive

Cc1nc2ccccc2nc1SCC(=O)NC(=O)NCC(F)(F)F [Compound 3, 2-((3-methylquinoxalin-2-yl)thio)-N-((2,2,2-trifluoroethyl)carbamoyl) acetamide]
activity in SAR studies, MVP40 VLP budding (words, FIG. 10) (MARV VP40 (mVP40) VLPs): very effective
inhibition of egress of mVP40 VLPs (MARV VP40 (mVP40) VLPs; 1.0 μM): 10 fold
inhibition of egress of mVP40 VLPs (MARV VP40 (mVP40) VLPs; 10 μM): 100 fold
inhibition of egress of mVP40 VLPs (MARV VP40 (mVP40) VLPs; 20 μM): 100 fold
inhibition of egress of eVP40 VLPs (EBOV VP40 (eVP40) VLPs; 1.0 μM): < 2 fold
inhibition of egress of eVP40 VLPs (EBOV VP40 (eVP40) VLPs; 10 μM): 4.5 fold
inhibition of egress of eVP40 VLPs (EBOV VP40 (eVP40) VLPs; 20 μM): 20 fold

CCNC(=O)NC(=O)CSc1nc2ccccc2nc1C [Compound 3f, N-(ethylcarbamoyl)-2-((3-methylquinoxalin-2-yl)thio)acetamide]
potency relative to 3 in the MVP40 budding assay (MARV VP40 (mVP40) VLPs): as or more potent than 3

Cc1nc2ccccc2nc1SCC(=O)NC(=O)NC1CC1 [Compound 3g, N-(cyclopropylcarbamoyl)-2-((3-methylquinoxalin-2-yl)thio)acetamide]
potency relative to 3 in the MVP40 budding assay (MARV VP40 (mVP40) VLPs): as or more potent than 3

Cc1nc2ccccc2nc1SCC(=O)NC(=O)NCc1cccs1 [Compound 3i, 2-((3-methylquinoxalin-2-yl)thio)-N-((thiophen-2-ylmethyl)carbamoyl)acetamide]
potency relative to 3 in the MVP40 budding assay (MARV VP40 (mVP40) VLPs): as or more potent than 3

Cc1nn(-c2ccccc2)c(C)c1NC(=O)CN1CCCC(c2nc3ccccc3s2)C1 (stereo not shown) [Compound 4, 2-(3-(benzo[d]thiazol-2-yl)piperidin-1-yl)-N-(3,5-dimethyl-1-phenyl-1H-pyrazol-4-yl)acetamide]
activity in SAR studies, MVP40 VLP budding (words, FIG. 10) (MARV VP40 (mVP40) VLPs): sub-micromolar
budding of mVP40 VLPs reduced (MARV VP40 (mVP40) VLPs): > 90%
inhibition of egress of mVP40 VLPs (MARV VP40 (mVP40) VLPs; 0.5 μM): 30 fold
inhibition of egress of mVP40 VLPs (MARV VP40 (mVP40) VLPs; 1.0 μM): 100 fold
inhibition of egress of eVP40 VLPs (EBOV VP40 (eVP40) VLPs; 0.5 μM): 3 fold
inhibition of egress of eVP40 VLPs (EBOV VP40 (eVP40) VLPs; 1.0 μM): 10 fold
inhibition of egress of LFV Z VLPs (LFV Z VLPs; 0.5 μM): > 5 fold
PPxY-dependent budding of VSV reduced (VSV-WT; 0.1 μM): approximately 50%
PPxY-dependent budding of VSV reduced (VSV-WT; 0.5 μM): ~100%
inhibition of egress of VSV-WT (VSV-WT; 0.5 μM): approximately 20 fold
inhibition of egress of live VSV-WT (VSV-WT; 0.5 μM): more than 1 log
titer of VSV-WT (VSV-WT; 0.5 μM): 1.8×10^6 pfu/ml
inhibition of egress of VSV-M40 (VSV-M40; 0.1 μM): approximately 2 fold
inhibition of egress of VSV-M40 (VSV-M40; 0.5 μM): 3 fold

Cc1nc2ccccc2nc1SCC(=O)NC(=O)Nc1ccccc1 [Compound 5, 2-((3-methylquinoxalin-2-yl)thio)-N-(phenylcarbamoyl)acetamide]
inhibition of egress of mVP40 VLPs (MARV VP40 (mVP40) VLPs; 0.1 μM): 25 fold
inhibition of egress of mVP40 VLPs (MARV VP40 (mVP40) VLPs; 0.5 μM): 100 fold
inhibition of egress of mVP40 VLPs (MARV VP40 (mVP40) VLPs; 1.0 μM): 100 fold
IC50 (MARV VP40 (mVP40) VLPs; read-out: IC50, anti-budding activity on MVP40): < 100 nM
inhibition of egress of eVP40 VLPs (EBOV VP40 (eVP40) VLPs; 0.1 μM): < 2 fold
inhibition of egress of eVP40 VLPs (EBOV VP40 (eVP40) VLPs; 0.5 μM): 3.5 fold
inhibition of egress of eVP40 VLPs (EBOV VP40 (eVP40) VLPs; 1.0 μM): 7 fold
inhibition of egress of LFV Z VLPs (LFV Z VLPs; 0.1 μM): approximately 3 fold
inhibition of egress of LFV Z VLPs (LFV Z VLPs; 0.5 μM): ~5 fold
inhibition of egress of VSV-WT (VSV-WT; 0.5 μM): 4 fold
inhibition of egress of VSV-M40 (VSV-M40; 0.1 μM): 2 fold
inhibition of egress of VSV-M40 (VSV-M40; 0.5 μM): 6 fold
